Measured values: patent US9540299B2, “MTOR-independent activator of TFEB for autophagy enhancement and uses thereof” (Hong Kong Baptist University, priority 2015, dated 2017)

Tests used:
[1] = tested on: TFEB and autophagy in rats brains; experiment: Short-term oral administration in SD rats: TFEB, autophagy and MTOR markers in liver and brain; format: in vivo
Description: SD rats (n=6 per group) are orally administered by gavage with C1 (10 mg/kg and 25 mg/kg per day) or vehicle (1% CMC-Na) for 24 h. An additional dosage of C1 was given for 6 h before the rats were killed. […] FIG. 9B-9D are bar charts showing quantitative data of various protein expressions in the liver, frontal cortex and striatum. Data are presented as the mean±SD (n=6). *p<0.05 vs. the vehicle treatment. […] Relative quantification (RQ) is presented as means±SD (n=4). *p<0.05 vs. the vehicle treatment.
SD rats (n=6 per group) are orally administered by gavage with C1 (10 mg/kg and 25 mg/kg per day) or vehicle (1% CMC-Na) for 24 h. An additional dosage of C1 is given for 6 h before the rats are killed. […] Data are presented as the mean±SD (n=6). FIG. 10B is western blot (left) and quantitative data (right) showing TFEB nuclear translocation after C1 treatment (n=4).
All animal care and procedures are approved by the Hong Kong Baptist University Committee on the Use of Human and Animal Subjects in Teaching and Research. Adult male Sprague-Dawley (SD) rats weighted 350-400 g are maintained on ad libitum food and water with a 12-hour light/dark cycle in a controlled environment. For short-term treatment, rats (n=6 per group) are orally administered by gavage with C1 (10 mg/kg and 25 mg/kg per day) or vehicle (1% sodium carbonyl methylcellulose (CMC-Na)) for 24 h. For chronic treatment, C1 (10 mg/kg per day) is given by gavage to rats for 21 days. At the end of each treatment, an additional dosage of C1 is given for 6 h before the rats are killed. Livers and major brain regions dissected are snap-frozen in liquid nitrogen.
Total RNA is extracted from cells and tissues using RNeasy Plus Mini Kit (74134, Qiagen). Reverse transcription is performed using High-Capacity cDNA Reverse Transcription Kit (4368814, Life Technologies). Autophagy and lysosome gene primers are synthesized by Life Technologies and the oligonucleotide sequences are listed in Table 1. Real-time PCR is carried out with the Fast SYBRR Green Master Mix (4385612, Life Technologies) using the ViiA™ 7 Real-Time PCR System (Life Technologies). Fold changes are calculated using the ΔΔCT method and the results were normalized against an internal control (GAPDH or ACTB).
(§1) Cells are lysed on ice in 1× Lysis Buffer (9803, Life Technologies) with complete protease inhibitor mixture (04693124001, Roche Applied Science). Animal tissues are homogenized in nine volumes of ice-cold PBS supplemented with protease inhibitors. Cytosolic and nuclear fractions are isolated using protocols similar to those described previously. Anti-Flag or TFEB antibody is added to the whole cell lysates and Dynabeads® Protein G (10003D, Life Technologies) is used for immunoprecipitation. Proteins are separated by 10-15% SDS-PAGE, transferred, and blotted with the antibodies described. The blots are then incubated with secondary antibodies or the Clean-Blot IP Detection Reagent (21230, Thermo Scientific) at room temperature for 1 h. The protein signals are detected by ECL kit (32106, Pierce) and quantified using ImageJ software.

[2] = biological target: T1, MTOR-TFEB-YWHA interaction (Homo sapiens, UniProt P19484); experiment: Co-immunoprecipitation of MTOR and YWHA with Flag-TFEB in Hela cells; format: cell-based; conditions: Hela 3×Flag-TFEB cells, 1 μM, 12 h
T1 construct: expressed in transfected cells; host or cells: HeLa cells stably expressing 3×Flag-TFEB; MTOR and YWHA are endogenous
T1 sequence (P19484 1-476): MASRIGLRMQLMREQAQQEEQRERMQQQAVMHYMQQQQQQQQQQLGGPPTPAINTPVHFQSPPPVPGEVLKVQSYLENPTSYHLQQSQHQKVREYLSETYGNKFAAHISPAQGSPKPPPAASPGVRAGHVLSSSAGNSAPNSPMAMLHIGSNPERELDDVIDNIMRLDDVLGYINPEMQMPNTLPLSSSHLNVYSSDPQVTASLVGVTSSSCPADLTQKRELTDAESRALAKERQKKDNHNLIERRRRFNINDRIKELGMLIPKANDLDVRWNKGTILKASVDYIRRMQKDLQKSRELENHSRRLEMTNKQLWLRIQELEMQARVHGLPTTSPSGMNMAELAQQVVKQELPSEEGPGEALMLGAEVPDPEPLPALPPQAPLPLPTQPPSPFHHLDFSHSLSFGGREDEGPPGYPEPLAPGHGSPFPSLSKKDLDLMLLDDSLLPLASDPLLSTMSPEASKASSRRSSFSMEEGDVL
Description: as §1, with “Hela cells stably expressing 3×Flag-TFEB are treated with C1 (1 μM) for 12 h. Endogenous MTOR and YWHA are co-immunoprecipitated with Flag-TFEB. Western blots and levels of immunoprecipitated MTOR (FIG. 5A) and YWHA (FIG. 5B) normalized to their corresponding levels in whole cell lysates (WCL). Data are presented as the mean±SD from three independent experiments. *p<0.05 vs. the control. WB—western blot and IP—immunoprecipitation. Cells” for “Cells”, “software. Hela cells stably expressing 3×Flag-TFEB are treated with C1 (1 μM) for 12 h. […]” for “software.”

[3] = short-term oral 10 and 25 mg/kg

COc1ccccc1/C=C/C(=O)/C=C/c1ccccc1OC [C1, 1,5-bis(2-methoxyphenyl)penta-1,4-dien-3-one]
interaction between endogenous TFEB and MTOR in the frontal cortex ([1]; oral 25 mg/kg): significantly inhibited
phosphorylation of MTOR and RPS6KB1 in frontal cortex ([1]; oral 25 mg/kg): significantly increases
expression of LC3-II and TFEB in the liver, frontal cortex and striatum ([1]; short-term oral 10 mg/kg and 25 mg/kg): dose-dependently increases
expression of LAMP1 in the brains [1, 3]: dose-dependently increases
nuclear translocation of TFEB in the brains (western blot) [1, 3]: dose-dependently promotes
levels of endogenous SQSTM1/p62 or SNCA in the brains ([1]; short-term oral administration): does not affect
mRNA of TFEB and several autophagy/lysosomal genes in the brain (real-time PCR) ([1]; short-term oral, frontal cortex): up-regulated
MTOR and YWHA coimmunoprecipitated with Flag-TFEB compared with control [2]: decreased
levels of endogenous MTOR and YWHA [2]: does not affect
